Consider three molecules from BindingDB's records for doi:10.1021/jm00116a004 (Northeastern University, 1992).

Assay [1] deals with D(1A) dopamine receptor (Canis familiaris). Briefly: The compound was evaluated for the dissociation constant for inhibiting the binding of [3H]-SCH- 23390 at dopamine receptor D1.
Assay [2] concerns the target D(2) dopamine receptor (Sus scrofa). Briefly: The compound was evaluated for the binding affinity towards dopamine receptor D2 at high affinity state.
In assay [3] the target is D(1A) dopamine receptor (Canis familiaris). Briefly: The compound was evaluated for the dissociation constant for inhibiting the binding of [3H]-SCH- 23390 at Dopamine receptor D1.
The target in assay [4] is D(2) dopamine receptor (Sus scrofa). Briefly: The compound was evaluated for the binding affinity towards Dopamine receptor D2 at high affinity state.
Assay [5] has the same target. Briefly: The compound was evaluated for the binding affinity towards Dopamine receptor D2 at low affinity state.

For the molecule `CN1CCc2c(cc(O)c(O)c2Cl)C(c2ccccc2)C1` (configuration not stated), the figures for the inhibitory constant (Ki) in assay [1] and in assay [2] were 0.9 nM and 77 nM, respectively.
As for `CN1CCc2c(cc(O)c(O)c2Br)C(c2ccccc2)C1` (configuration not stated), the inhibition constant Ki in assay [1] came out at 1.2 nM; in assay [2], 490 nM.
As to `Oc1cc2c(c(Br)c1O)CCNCC2c1ccccc1` (configuration not stated), the Ki amounted to 12 nM in assay [3], 39 nM in assay [4] and 2000 nM in assay [5].
